The source made the active and inactive calls.
How the values were obtained:
[1] = molecular target: T1, Corticotropin-releasing factor receptor 2/Corticotropin-releasing factor-binding protein (Homo sapiens, UniProt P24387+Q13324); assay: activators of CRF receptor 2 with binding protein – uHTS hits, confirmation (AID 602473); type: functional; details: read-out: EC50_Mean
T1 sequence (Q13324 whole entry): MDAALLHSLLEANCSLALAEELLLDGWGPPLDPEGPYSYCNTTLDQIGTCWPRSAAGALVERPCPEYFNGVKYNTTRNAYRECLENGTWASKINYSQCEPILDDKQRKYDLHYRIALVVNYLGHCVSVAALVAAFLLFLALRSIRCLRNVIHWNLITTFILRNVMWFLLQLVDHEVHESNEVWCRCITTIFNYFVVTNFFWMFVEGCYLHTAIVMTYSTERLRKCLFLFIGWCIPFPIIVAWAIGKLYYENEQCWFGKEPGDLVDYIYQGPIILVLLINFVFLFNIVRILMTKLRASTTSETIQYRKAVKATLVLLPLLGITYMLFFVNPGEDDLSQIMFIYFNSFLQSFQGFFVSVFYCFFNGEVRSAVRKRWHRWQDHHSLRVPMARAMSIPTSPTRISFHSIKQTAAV
T1 sequence (P24387 whole entry): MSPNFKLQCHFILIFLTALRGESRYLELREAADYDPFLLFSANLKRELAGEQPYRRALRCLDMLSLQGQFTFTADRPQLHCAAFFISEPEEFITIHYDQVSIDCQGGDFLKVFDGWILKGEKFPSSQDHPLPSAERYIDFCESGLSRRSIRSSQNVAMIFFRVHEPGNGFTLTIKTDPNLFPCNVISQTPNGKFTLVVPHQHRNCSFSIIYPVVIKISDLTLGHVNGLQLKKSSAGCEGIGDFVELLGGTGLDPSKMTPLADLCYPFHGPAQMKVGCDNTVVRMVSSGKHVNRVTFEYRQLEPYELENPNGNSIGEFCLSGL

[2] = cytotoxicity toward NIH3T3 fibroblasts, dose response, counter-screen, cell-based, ATP luminescence, mouse fibroblasts (AID 2010); type: functional;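 note: cells exposed to compound for about 90 hours before reading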
[3] = inhibitors of intracellular T. cruzi replication, confirmation, NIH3T3 host cells, beta-gal luminescence (AID 2044); type: functional, cell-based;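 note: intracellular parasites grown in NIH/3T3 mouse fibroblasts as host cells; luminescent beta-galactosidase reporter signal from transgenic T. cruzi replicating inside host cells; inhibitors lower the luminescence signal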
[4] = inhibitors of SNCA 5'UTR-driven reporter translation, confirmation, H4 neuroglioma cells, luminescence (AID 1988); type: functional, cell-based
[5] = inhibitors of firefly luciferase expression or activity, dose response, H4 neuroglioma cells, luminescence (AID 1990); type: functional, cell-based
[6] = Luminescence Cell-Based Dose Response HTS to Identify Inhibitors of 5'UTR Stem-Loop Driven Prion Protein mRNA Translation in H4 Neuroglioblastoma Cells. [Related pubchem assays: 1827 (Project Summary), 1813 (Primary HTS)]; type: functional
[7] = microbe, parasite or virus in culture; type: functional; details: Mycobacterium tuberculosis
[8] = Luminescence Cell-Based Dose Retest to Confirm Inhibitors of Cancer Stem Cells. [Related pubchem assays (depositor defined):AID2717, AID2721]; type: functional; details: Homo sapiens
[9] = HEp-2 cell cytotoxicity, dose response, cytotoxicity control for RSV inhibitor project, HTS (AID 2410); type: functional; details: human respiratory syncytial virus
[10] = molecular target: T2, Replicative DNA helicase DnaB (Mycobacterium tuberculosis, UniProt P9WMR3); assay: DnaB intein splicing inhibitors, dose response, biochemical, cell-free fluorescence (AID 449749); type: functional
T2 sequence (P9WMR3 whole entry): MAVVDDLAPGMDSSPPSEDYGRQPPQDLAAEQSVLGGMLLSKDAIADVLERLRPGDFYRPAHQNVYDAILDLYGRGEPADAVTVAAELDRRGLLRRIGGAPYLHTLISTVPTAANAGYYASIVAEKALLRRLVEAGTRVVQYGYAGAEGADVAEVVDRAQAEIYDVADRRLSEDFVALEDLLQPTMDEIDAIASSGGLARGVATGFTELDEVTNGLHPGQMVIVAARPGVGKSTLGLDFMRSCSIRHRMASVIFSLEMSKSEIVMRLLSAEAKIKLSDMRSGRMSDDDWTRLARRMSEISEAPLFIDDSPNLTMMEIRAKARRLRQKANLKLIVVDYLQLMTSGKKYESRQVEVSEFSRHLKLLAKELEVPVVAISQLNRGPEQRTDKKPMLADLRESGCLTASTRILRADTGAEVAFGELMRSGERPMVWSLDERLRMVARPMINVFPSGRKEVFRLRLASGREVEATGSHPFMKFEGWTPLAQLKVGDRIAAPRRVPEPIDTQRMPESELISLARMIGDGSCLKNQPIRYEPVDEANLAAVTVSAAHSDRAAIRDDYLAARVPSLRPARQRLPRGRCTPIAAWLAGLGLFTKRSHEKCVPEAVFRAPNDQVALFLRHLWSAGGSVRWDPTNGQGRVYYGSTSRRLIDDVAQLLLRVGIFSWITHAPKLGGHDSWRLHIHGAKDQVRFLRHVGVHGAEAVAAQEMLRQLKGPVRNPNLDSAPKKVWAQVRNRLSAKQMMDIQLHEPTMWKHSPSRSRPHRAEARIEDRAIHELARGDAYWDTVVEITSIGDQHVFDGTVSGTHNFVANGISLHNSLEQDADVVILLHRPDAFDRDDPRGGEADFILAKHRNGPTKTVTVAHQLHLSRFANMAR

Protein RecA = molecular target: T3, Protein RecA (Mycobacterium tuberculosis, UniProt P9WHJ3); assay: Fluorescence Cell-Free Homogeneous Dose Retest to Identify Inhibitors of RecA-Intein Splicing Activity. [Related pubchem assays (depositor defined):AID2097, AID2223, AID489010, AID492950]; type: functional
T3 sequence (P9WHJ3 whole entry): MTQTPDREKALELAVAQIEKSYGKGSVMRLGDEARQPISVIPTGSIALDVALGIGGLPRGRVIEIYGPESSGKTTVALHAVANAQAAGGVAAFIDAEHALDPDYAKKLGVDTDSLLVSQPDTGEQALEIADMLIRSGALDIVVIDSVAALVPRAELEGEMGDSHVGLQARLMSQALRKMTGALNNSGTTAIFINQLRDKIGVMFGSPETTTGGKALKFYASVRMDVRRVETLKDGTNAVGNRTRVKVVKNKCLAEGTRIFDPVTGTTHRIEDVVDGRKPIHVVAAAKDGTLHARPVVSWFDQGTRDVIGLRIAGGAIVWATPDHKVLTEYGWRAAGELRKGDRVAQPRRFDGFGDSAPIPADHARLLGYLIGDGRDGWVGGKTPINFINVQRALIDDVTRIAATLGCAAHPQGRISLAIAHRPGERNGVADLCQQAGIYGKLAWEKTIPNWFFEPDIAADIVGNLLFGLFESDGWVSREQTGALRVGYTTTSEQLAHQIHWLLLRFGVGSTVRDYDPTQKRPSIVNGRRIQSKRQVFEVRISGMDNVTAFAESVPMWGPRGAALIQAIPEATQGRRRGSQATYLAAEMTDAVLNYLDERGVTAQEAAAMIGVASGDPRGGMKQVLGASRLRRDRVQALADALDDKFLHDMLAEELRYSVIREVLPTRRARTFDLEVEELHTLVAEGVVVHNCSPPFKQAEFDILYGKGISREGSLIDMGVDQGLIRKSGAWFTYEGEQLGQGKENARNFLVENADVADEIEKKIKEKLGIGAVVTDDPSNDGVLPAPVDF

[11] = molecular target: T4, Heat shock factor protein 1 (Mus musculus, UniProt P38532); assay: HSF1 potentiators in luciferase reporter cells, confirmation, cell-based, NIH3T3, luminescence, dose retest (AID 435004); type: functional;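 note: stress induced by proteasome inhibitor MG132 added 30 min after compound; luciferase reporter driven by HSF1 response element in NIH3T3 cells; actives raise luminescence as potentiators of the MG132 stress response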
T4 sequence (P38532 whole entry): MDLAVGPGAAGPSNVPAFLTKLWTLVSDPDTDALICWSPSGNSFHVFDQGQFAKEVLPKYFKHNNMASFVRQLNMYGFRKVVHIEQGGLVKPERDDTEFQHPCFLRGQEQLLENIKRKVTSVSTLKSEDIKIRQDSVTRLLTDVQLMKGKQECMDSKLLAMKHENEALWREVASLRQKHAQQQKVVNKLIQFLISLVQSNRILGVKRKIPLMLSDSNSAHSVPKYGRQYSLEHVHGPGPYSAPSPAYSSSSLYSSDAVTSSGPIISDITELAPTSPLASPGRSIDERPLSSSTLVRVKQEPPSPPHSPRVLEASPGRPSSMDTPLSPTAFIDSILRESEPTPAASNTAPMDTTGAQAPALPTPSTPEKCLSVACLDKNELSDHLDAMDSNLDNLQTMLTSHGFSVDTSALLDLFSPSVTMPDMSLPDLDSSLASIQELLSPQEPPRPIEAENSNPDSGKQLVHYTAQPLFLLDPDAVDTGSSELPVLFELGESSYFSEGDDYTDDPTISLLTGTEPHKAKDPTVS

INS1 = assay: beta cell apoptosis inhibitors, cytokine rescue, dose response, luminescence, retest (AID 449756); type: functional, cell-based; details: Rattus norvegicus;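 note: cell death triggered by IL-1 beta plus TNF-alpha plus IFN-gamma mixture; protective hits raise ATP signal compared with cytokine alone wells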
[12] = Luminescence Cell-Based Dose Confirmation HTS to Identify Inhibitors of Platelet Dense Granule Release. [Related pubchem assays: 1663 (Primary HTS), 1678 (Summary of Project)]; type: functional
[13] = molecular target: Luciferin 4-monooxygenase (Photinus pyralis, UniProt P08659); assay: firefly luciferase enzyme inhibitors, dose response, biochemical, luminescence (AID 1891)
Sequence of Luciferin 4-monooxygenase (P08659 whole entry): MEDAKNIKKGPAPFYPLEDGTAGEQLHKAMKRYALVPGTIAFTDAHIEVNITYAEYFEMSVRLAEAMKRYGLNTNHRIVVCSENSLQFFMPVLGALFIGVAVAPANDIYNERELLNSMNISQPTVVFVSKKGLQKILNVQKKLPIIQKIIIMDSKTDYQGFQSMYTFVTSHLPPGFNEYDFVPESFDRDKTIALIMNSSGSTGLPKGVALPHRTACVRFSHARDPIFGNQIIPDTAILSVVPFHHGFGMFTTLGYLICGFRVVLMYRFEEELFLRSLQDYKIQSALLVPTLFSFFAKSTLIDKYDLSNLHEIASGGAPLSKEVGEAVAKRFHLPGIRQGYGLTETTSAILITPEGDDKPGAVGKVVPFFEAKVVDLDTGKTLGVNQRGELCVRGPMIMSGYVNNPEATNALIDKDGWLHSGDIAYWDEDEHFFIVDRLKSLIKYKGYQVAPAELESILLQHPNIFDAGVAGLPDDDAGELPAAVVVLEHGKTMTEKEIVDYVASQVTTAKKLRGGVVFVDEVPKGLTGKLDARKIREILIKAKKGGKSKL

[14] = molecular target: T5, Rac GTPase-activating protein 1 (Homo sapiens, UniProt Q9H0H5); assay: MgcRacGAP GTPase-activating activity inhibitors, confirmation, biochemical, ADP Hunter fluorescence, primary and confirmatory (AID 624330); type: functional
T5 sequence (Q9H0H5 whole entry): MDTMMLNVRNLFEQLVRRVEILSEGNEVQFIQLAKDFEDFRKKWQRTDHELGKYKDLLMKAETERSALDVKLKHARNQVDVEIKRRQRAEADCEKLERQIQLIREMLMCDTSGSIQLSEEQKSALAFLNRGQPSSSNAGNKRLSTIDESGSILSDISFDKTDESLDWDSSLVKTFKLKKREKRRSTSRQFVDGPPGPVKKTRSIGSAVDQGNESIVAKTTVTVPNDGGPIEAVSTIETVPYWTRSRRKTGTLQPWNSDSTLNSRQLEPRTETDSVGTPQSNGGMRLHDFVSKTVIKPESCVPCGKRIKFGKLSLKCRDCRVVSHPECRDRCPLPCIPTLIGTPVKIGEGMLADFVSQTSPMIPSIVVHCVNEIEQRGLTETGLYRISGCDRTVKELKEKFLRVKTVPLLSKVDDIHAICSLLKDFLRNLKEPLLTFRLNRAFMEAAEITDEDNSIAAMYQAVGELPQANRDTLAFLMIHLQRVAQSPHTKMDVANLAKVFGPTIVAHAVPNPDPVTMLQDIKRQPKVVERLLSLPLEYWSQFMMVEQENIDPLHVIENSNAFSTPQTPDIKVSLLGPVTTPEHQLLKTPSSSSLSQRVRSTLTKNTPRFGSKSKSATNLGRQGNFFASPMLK

## O=C1/C(=C/c2ccc(O)cc2)SC(=S)N1Cc1cccnc1
[1]
  EC50: 12.9 µM (active)

## Cc1ccc(-n2nc(C)c3c(C)c(CCC(=O)Nc4ccc(CN5CCCC5)cc4)c(C)nc32)cc1
[2]
  EC50: > 60 µM (not active)
[3]
  EC50: 1.76 µM (active)
[4]
  EC50: 8.22 µM (active)
[5]
  EC50: 9.39 µM (active)
[6]
  EC50: > 120 µM (not active)
[7]
  CC50: 8.7 µM (active)
[8]
  AC50: 5.7 µM (active)

## CCc1ccccc1N(CC)C(=O)C1CCN(c2ncnc3c2nc2n3CCCCC2)CC1
[9]
  CC50: 17.2 µM (active)

## CCOc1ccc(-n2c(SCc3cc(=O)oc4cc(C)c(C(C)C)cc34)nnc2-c2cccnc2)cc1
[9]
  CC50: 17.5 µM (active)

## CN=C(S)NNC(=O)c1ccc(N(C)C)cc1
[9]
  CC50: > 50 µM (active)

## O=S(=O)(c1ccccc1)N1CCCC(c2nc(O)c3nnn(Cc4ccccc4Br)c3n2)C1 (centres undefined)
[9]
  CC50: 18.2 µM (active)

## O=C(c1ccco1)c1coc2c1cc(O)c1ccccc12
[10]
  AC50: 16.2 µM (active)
Protein RecA
  EC50: 48.7 µM (active)
[11]
  EC50: 65.4 µM (active)
INS1
  AC50: 27 µM (active)

## Cc1ccc(-c2nn(-c3ccccc3)cc2/C=C/C(=O)Nc2cccc(S(N)(=O)=O)c2)cc1
INS1
  AC50: 3.29 µM (active)

## c1coc(CNc2c3c(nc4ncnn24)CCC3)c1
[9]
  CC50: 40.5 µM (active)

## Cn1c(=O)c(C(=O)COC(=O)c2cc(C(F)(F)F)nc3c(C(F)(F)F)cccc23)c(N)n(CC2CC2)c1=O
[7]
  CC50: > 40 µM (active)

## CCn1nc(C)c(C(=O)Nc2cc(Oc3cc(C)cc(C)c3)cc([N+](=O)[O-])c2)c1C
[7]
  CC50: 22.7 µM (active)

## COc1ccc(-c2oc3cccnc3c2C#CCO)cc1
[9]
  CC50: > 50 µM (active)

## Cc1ccccc1C(=O)NC(=S)Nc1sc2c(c1C#N)CCC(C)C2 (centres undefined)
[9]
  CC50: 36.8 µM (active)

## COC(=O)c1ccc(CSc2nc3ccccc3[nH]2)o1
[9]
  CC50: > 50 µM (active)

## Cc1[nH]c2ccccc2c1N=Nc1ccccc1F
[9]
  CC50: 18 µM (active)

## CC1=[N+]([O-])C(C)(C)N(O)C1(C)C
[1]
  EC50: > 53 µM (inactive)
[12]
  EC50: > 112 µM (not active)
[13]
  EC50: > 112 µM (not active)

## CC1(C)CC(=O)C2=C(C1)N=C(Nc1nc3ccccc3o1)NC2c1ccccn1 (centres undefined)
[7]
  CC50: > 40 µM (active)

## O=C(Oc1ccccc1-c1nnco1)c1ccc(Cl)cc1
[7]
  CC50: 21.8 µM (active)

## O=C1C=C(c2ccccc2)C(c2ccccc2)C1O (centres undefined)
[1]
  EC50: > 53 µM (inactive)

## CCN(CC)c1ccc(/N=C/c2ccccc2[N+](=O)[O-])cc1
INS1
  AC50: 33.2 µM (active)
[14]
  IC50: 30.5 µM (active)

## C/C(=N\Nc1nc(C)cc(-c2ccccc2)n1)c1cccc(N)c1
INS1
  AC50: 2.76 µM (active)

## Oc1c(/C=N/Cc2ccc(F)cc2)[nH]c2ccc(Br)c(Cl)c12
[9]
  CC50: 29.1 µM (active)
[10]
  AC50: 61.8 µM (active)
Protein RecA
  EC50: 2.44 µM (active)

## CN(C)c1nc(NCc2ccccc2)nc(N/N=C/c2ccc3c(c2)OCO3)n1
[7]
  CC50: > 40 µM (active)

## CCCCC[C@H](O)/C=C/[C@H]1[C@H](O)CC(=O)[C@@H]1CCCCCCC(=O)O [ALPROSTADIL]
[12]
  EC50: < 0.088 µM (active)
[13]
  EC50: > 112 µM (not active)

Reference: ChEMBL document CHEMBL1201862, “PubChem BioAssay data set” (2004)
